Measured values: ChEMBL document CHEMBL4507293 (2021)

Assays:
[1] = system: Tyrosine-protein kinase ABL1 (Homo sapiens), P00519 [Q252H]; conditions: Compound concentration 100.0 nM
[2] = molecular target: Atypical kinase COQ8A, mitochondrial (Homo sapiens) (UniProt Q8NI60); conditions: Compound concentration 100.0 nM
[3] = molecular target: Peripheral plasma membrane protein CASK (Homo sapiens) (UniProt O14936); conditions: Compound concentration 100.0 nM
[4] = molecular target: Serine/threonine-protein kinase Chk2 (Homo sapiens) (UniProt O96017); conditions: Compound concentration 100.0 nM
[5] = molecular target: Dual specificity protein kinase CLK1 (Homo sapiens) (UniProt P49759); conditions: Compound concentration 100.0 nM
Sequence of Dual specificity protein kinase CLK1 (Homo sapiens) (P49759 whole entry, looked up): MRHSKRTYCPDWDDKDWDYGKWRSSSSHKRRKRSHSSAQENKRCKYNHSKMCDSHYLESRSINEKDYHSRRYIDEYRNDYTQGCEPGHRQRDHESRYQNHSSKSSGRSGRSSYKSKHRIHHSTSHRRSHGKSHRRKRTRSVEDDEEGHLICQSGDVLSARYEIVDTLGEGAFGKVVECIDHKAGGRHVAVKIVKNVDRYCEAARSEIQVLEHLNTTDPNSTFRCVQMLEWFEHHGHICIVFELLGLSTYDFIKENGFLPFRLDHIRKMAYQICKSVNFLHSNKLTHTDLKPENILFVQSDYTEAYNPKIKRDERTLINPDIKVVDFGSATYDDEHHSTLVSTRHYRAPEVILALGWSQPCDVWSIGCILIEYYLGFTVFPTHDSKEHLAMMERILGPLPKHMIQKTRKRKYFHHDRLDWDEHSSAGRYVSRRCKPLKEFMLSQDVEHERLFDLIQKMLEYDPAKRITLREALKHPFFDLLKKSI

[6] = molecular target: Casein kinase II subunit alpha' (Homo sapiens) (UniProt P19784); conditions: Compound concentration 100.0 nM
[7] = molecular target: Epithelial discoidin domain-containing receptor 1 (Homo sapiens) (UniProt Q08345); conditions: Compound concentration 100.0 nM
[8] = system: Epidermal growth factor receptor (Homo sapiens), P00533 [UNDEFINED MUTATION]; conditions: Compound concentration 100.0 nM
[9] = system: eIF-2-alpha kinase GCN2 (Homo sapiens), Q9P2K8 [S808G]; conditions: Compound concentration 100.0 nM
[10] = molecular target: Beta-adrenergic receptor kinase 1 (Homo sapiens) (UniProt P25098); conditions: Compound concentration 100.0 nM
Sequence of Beta-adrenergic receptor kinase 1 (Homo sapiens) (P25098 whole entry): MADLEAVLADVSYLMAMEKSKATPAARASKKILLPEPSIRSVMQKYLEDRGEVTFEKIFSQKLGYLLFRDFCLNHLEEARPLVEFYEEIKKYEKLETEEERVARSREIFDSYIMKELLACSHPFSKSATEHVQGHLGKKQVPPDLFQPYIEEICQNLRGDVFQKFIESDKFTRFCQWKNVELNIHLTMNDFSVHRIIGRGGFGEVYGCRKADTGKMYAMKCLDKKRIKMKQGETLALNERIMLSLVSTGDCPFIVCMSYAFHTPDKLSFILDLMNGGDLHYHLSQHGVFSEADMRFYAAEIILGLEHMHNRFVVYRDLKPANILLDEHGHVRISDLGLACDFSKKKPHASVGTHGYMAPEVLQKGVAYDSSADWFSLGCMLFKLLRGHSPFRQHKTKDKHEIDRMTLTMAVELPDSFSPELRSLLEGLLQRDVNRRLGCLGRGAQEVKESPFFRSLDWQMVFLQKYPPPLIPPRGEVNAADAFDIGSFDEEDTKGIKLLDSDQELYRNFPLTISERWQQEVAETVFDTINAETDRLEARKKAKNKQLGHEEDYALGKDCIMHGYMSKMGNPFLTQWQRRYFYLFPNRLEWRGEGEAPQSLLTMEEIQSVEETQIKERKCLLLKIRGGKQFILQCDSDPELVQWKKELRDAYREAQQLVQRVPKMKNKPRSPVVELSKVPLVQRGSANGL

[11] = molecular target: Glycogen synthase kinase-3 alpha (Homo sapiens) (UniProt P49840); conditions: Compound concentration 100.0 nM
[12] = molecular target: Insulin receptor (Homo sapiens) (UniProt P06213); conditions: Compound concentration 100.0 nM
[13] = system: Mast/stem cell growth factor receptor Kit (Homo sapiens), P10721 [L576P]; conditions: Compound concentration 100.0 nM
[14] = molecular target: Mast/stem cell growth factor receptor Kit (Homo sapiens) (UniProt P10721); conditions: Compound concentration 100.0 nM
[15] = molecular target: Mitogen-activated protein kinase kinase kinase kinase 3 (Homo sapiens) (UniProt Q8IVH8); conditions: Compound concentration 100.0 nM
[16] = molecular target: Hepatocyte growth factor receptor (Homo sapiens) (UniProt P08581); conditions: Compound concentration 100.0 nM
[17] = molecular target: Serine/threonine-protein kinase 24 (Homo sapiens) (UniProt Q9Y6E0); conditions: Compound concentration 100.0 nM
[18] = molecular target: Serine/threonine-protein kinase Nek3 (Homo sapiens) (UniProt P51956); conditions: Compound concentration 100.0 nM
Sequence of Serine/threonine-protein kinase Nek3 (Homo sapiens) (P51956 whole entry): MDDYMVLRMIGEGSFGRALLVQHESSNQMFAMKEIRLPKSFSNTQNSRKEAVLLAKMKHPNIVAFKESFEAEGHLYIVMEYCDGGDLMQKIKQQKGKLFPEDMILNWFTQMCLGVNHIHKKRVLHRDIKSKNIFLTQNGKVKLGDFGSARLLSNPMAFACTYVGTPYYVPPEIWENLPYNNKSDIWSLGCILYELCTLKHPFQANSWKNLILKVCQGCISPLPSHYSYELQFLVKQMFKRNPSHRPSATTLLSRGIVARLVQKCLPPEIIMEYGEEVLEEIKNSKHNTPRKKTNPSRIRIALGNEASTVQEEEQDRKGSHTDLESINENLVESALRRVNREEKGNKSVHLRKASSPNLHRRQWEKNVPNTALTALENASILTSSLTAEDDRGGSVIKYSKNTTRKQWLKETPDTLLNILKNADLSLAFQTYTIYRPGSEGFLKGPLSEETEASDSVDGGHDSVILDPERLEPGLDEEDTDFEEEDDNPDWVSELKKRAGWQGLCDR

[19] = molecular target: Platelet-derived growth factor receptor beta (Homo sapiens) (UniProt P09619); conditions: Compound concentration 100.0 nM
[20] = molecular target: Cyclin-dependent kinase 15 (Homo sapiens) (UniProt Q96Q40); conditions: Compound concentration 100.0 nM
[21] = system: Phosphatidylinositol 4,5-bisphosphate 3-kinase catalytic subunit alpha isoform (Homo sapiens), P42336 [H1047Y]; conditions: Compound concentration 100.0 nM
[22] = molecular target: Phosphatidylinositol 4,5-bisphosphate 3-kinase catalytic subunit gamma isoform (Homo sapiens) (UniProt P48736); conditions: Compound concentration 100.0 nM
[23] = molecular target: Phosphatidylinositol 4-phosphate 5-kinase type-1 gamma (Homo sapiens) (UniProt O60331); conditions: Compound concentration 100.0 nM
Sequence of Phosphatidylinositol 4-phosphate 5-kinase type-1 gamma (Homo sapiens) (O60331 whole entry): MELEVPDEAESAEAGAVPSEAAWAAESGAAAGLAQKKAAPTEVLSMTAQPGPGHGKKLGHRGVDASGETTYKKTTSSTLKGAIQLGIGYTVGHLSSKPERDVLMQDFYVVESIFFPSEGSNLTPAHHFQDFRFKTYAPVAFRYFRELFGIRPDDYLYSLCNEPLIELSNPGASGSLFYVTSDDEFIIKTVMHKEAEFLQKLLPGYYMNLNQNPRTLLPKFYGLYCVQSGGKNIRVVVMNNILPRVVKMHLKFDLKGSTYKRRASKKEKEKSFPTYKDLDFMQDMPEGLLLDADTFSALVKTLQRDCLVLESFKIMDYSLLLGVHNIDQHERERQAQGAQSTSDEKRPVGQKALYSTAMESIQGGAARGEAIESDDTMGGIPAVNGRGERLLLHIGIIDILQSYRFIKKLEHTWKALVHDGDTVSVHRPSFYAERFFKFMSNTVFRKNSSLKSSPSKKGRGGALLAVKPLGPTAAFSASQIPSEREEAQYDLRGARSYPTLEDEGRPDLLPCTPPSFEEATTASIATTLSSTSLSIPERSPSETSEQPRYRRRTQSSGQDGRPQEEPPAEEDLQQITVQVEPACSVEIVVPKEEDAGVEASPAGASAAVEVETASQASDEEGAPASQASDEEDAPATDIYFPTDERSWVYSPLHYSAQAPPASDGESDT

[24] = molecular target: cAMP-dependent protein kinase catalytic subunit PRKX (Homo sapiens) (UniProt P51817); conditions: Compound concentration 100.0 nM
[25] = system: Proto-oncogene tyrosine-protein kinase receptor Ret (Homo sapiens), P07949 [V804L]; conditions: Compound concentration 100.0 nM
Sequence of Proto-oncogene tyrosine-protein kinase receptor Ret (Homo sapiens), P07949 [V804L] (P07949 whole entry V804L): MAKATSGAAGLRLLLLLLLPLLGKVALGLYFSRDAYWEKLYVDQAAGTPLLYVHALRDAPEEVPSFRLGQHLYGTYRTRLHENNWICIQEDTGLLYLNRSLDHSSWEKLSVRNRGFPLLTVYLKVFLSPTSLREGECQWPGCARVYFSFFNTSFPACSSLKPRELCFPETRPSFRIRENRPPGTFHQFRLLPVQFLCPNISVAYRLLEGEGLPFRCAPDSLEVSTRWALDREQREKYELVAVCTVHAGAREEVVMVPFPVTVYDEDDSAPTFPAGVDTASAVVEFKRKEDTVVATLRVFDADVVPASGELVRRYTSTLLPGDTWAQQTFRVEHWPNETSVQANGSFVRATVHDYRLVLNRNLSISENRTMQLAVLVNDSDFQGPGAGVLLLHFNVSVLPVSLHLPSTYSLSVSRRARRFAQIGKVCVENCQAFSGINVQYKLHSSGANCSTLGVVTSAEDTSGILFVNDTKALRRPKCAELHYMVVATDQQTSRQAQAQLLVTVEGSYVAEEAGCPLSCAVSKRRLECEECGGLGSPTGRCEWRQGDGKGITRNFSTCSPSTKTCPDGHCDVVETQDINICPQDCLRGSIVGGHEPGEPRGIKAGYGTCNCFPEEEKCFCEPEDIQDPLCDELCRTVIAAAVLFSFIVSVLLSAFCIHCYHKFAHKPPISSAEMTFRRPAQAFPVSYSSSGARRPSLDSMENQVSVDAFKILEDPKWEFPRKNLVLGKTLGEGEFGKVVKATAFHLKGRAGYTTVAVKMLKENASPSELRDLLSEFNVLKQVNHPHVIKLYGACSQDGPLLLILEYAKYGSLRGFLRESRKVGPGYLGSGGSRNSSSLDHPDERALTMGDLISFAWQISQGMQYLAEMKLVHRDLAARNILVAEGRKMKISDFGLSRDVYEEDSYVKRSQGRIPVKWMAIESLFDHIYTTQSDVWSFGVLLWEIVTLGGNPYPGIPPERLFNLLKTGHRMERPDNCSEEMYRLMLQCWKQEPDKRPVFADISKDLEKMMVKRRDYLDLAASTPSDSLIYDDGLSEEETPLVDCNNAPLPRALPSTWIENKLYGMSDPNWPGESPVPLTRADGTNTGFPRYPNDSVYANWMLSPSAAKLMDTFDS

[26] = molecular target: Receptor-interacting serine/threonine-protein kinase 1 (Homo sapiens) (UniProt Q13546); conditions: Compound concentration 100.0 nM
[27] = molecular target: Proto-oncogene tyrosine-protein kinase ROS (Homo sapiens) (UniProt P08922); conditions: Compound concentration 100.0 nM
[28] = molecular target: Ribosomal protein S6 kinase alpha-2 (Homo sapiens) (UniProt Q15349); conditions: Compound concentration 100.0 nM
[29] = molecular target: Ribosomal protein S6 kinase alpha-6 (Homo sapiens) (UniProt Q9UK32); conditions: Compound concentration 100.0 nM
Sequence of Ribosomal protein S6 kinase alpha-6 (Homo sapiens) (Q9UK32 whole entry): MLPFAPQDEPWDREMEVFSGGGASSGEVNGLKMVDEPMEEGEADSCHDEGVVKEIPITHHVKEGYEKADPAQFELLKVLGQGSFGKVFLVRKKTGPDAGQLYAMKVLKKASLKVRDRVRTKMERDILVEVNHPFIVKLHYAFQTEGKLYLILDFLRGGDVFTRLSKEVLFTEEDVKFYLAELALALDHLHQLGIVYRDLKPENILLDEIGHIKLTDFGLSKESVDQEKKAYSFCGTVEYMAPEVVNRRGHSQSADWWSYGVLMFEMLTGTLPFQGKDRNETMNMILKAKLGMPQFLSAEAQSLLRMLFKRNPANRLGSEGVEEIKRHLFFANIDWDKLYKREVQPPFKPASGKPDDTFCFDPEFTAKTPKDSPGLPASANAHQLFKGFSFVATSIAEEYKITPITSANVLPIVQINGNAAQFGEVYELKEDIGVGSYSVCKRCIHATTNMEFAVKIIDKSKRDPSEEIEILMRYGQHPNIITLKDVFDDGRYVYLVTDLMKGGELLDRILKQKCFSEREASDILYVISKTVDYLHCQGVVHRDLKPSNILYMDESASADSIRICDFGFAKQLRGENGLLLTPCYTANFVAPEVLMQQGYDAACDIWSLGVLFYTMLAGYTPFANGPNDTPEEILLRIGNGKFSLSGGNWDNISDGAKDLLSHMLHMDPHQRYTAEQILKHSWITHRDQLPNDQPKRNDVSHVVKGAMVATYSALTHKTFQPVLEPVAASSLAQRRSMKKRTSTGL

[30] = molecular target: Serine/threonine-protein kinase SBK1 (Homo sapiens) (UniProt Q52WX2); conditions: Compound concentration 100.0 nM
[31] = molecular target: Serine/threonine-protein kinase Sgk3 (Homo sapiens) (UniProt Q96BR1); conditions: Compound concentration 100.0 nM
[32] = molecular target: SRSF protein kinase 2 (Homo sapiens) (UniProt P78362); conditions: Compound concentration 100.0 nM
[33] = molecular target: SRSF protein kinase 3 (Homo sapiens) (UniProt Q9UPE1); conditions: Compound concentration 100.0 nM
[34] = molecular target: Tyrosine-protein kinase Tec (Homo sapiens) (UniProt P42680); conditions: Compound concentration 100.0 nM
[35] = molecular target: Tyrosine-protein kinase TXK (Homo sapiens) (UniProt P42681); conditions: Compound concentration 100.0 nM
Sequence of Tyrosine-protein kinase TXK (Homo sapiens) (P42681 whole entry): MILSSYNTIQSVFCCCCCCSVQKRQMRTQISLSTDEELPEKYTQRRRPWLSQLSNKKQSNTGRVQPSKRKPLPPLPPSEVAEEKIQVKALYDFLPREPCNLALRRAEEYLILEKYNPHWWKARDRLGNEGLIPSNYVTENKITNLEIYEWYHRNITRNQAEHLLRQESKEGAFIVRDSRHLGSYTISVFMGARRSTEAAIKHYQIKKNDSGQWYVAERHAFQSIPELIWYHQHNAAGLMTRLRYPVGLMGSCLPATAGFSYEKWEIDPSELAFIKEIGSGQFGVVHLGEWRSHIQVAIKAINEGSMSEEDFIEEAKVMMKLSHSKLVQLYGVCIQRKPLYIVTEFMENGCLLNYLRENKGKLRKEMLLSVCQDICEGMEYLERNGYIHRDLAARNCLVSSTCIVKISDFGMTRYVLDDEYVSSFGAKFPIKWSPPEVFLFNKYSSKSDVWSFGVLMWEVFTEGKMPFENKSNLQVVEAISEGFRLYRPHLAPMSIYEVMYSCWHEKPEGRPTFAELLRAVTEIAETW

[36] = molecular target: D(3) dopamine receptor (Homo sapiens) (UniProt P35462); conditions: Compound concentration 10.0 uM
[37] = molecular target: Beta-1 adrenergic receptor (Homo sapiens) (UniProt P08588); conditions: Compound concentration 10.0 uM
[38] = molecular target: T1, Muscarinic acetylcholine receptor M2 (Homo sapiens) (UniProt P08172); conditions: Compound concentration 10.0 uM
T1 sequence (whole entry): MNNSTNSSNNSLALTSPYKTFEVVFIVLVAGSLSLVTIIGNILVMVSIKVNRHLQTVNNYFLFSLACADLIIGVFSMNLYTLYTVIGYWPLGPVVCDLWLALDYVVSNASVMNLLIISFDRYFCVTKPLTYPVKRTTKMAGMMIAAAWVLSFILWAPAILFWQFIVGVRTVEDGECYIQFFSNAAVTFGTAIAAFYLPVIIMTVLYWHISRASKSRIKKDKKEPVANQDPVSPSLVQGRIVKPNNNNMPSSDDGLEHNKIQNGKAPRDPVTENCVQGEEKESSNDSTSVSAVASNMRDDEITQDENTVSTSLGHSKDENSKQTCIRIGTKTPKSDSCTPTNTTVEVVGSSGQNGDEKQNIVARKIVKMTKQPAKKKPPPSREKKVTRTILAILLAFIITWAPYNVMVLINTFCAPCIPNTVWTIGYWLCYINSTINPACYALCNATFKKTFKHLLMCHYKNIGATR

[39] = molecular target: Sigma non-opioid intracellular receptor 1 (Homo sapiens) (UniProt Q99720); conditions: Compound concentration 10.0 uM
Sequence of Sigma non-opioid intracellular receptor 1 (Homo sapiens) (Q99720 whole entry): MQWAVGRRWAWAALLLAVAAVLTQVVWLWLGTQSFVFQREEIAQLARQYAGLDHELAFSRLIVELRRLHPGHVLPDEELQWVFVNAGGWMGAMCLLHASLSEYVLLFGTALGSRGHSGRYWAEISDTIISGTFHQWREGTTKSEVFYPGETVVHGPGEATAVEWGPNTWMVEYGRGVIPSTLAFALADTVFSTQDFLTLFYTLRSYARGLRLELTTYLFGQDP

COCCOc1nc(-c2ccc(Cl)nc2)nc2c1CN(C(=O)c1ncn3ccccc13)CC2 [THPP-1]
inactive: residual activity [1] 74% | residual activity [2] 100% | residual activity [3] 95% | residual activity [4] 100% | residual activity [5] 100% | residual activity [6] 100% | residual activity [7] 100% | residual activity [8] 100% | residual activity [9] 100% | residual activity [10] 100% | residual activity [11] 100% | residual activity [12] 76% | residual activity [13] 100% | residual activity [14] 100% | residual activity [15] 100% | residual activity [16] 100% | residual activity [17] 100% | residual activity [18] 100% | residual activity [19] 100% | residual activity [20] 100% | residual activity [21] 79% | residual activity [22] 100% | residual activity [23] 67% | residual activity [24] 100% | residual activity [25] 100% | residual activity [26] 100% | residual activity [27] 100% | residual activity [28] 100% | residual activity [29] 100% | residual activity [30] 100% | residual activity [31] 100% | residual activity [32] 100% | residual activity [33] 66% | residual activity [34] 100% | residual activity [35] 100% | inhibition [36] -6.15% | inhibition [37] 16.8% | inhibition [38] 19.3% | inhibition [39] 38.1%

CC(C)CC(=O)N1CCc2nc(-c3ccc(Br)cc3)nc(N(C)Cc3ccccc3)c2C1 [THPP-1-NC]
inactive: residual activity [1] 53% | residual activity [2] 100% | residual activity [3] 81% | residual activity [4] 100% | residual activity [5] 100% | residual activity [6] 88% | residual activity [7] 100% | residual activity [8] 100% | residual activity [9] 100% | residual activity [10] 100% | residual activity [11] 100% | residual activity [12] 84% | residual activity [13] 94% | residual activity [14] 100% | residual activity [15] 95% | residual activity [16] 99% | residual activity [17] 100% | residual activity [18] 100% | residual activity [19] 100% | residual activity [20] 100% | residual activity [21] 76% | residual activity [22] 100% | residual activity [23] 85% | residual activity [24] 100% | residual activity [25] 100% | residual activity [26] 100% | residual activity [27] 100% | residual activity [28] 100% | residual activity [29] 100% | residual activity [30] 100% | residual activity [31] 100% | residual activity [32] 100% | residual activity [33] 79% | residual activity [34] 100% | residual activity [35] 100% | inhibition [36] 5.44% | inhibition [37] 29.5% | inhibition [38] 18.2% | inhibition [39] 49.4%
